Experimental data: patent US11672788B2, “Histone deacetylase inhibitors for immunomodulation in tumor microenvironment” (GREAT NOVEL THERAPEUTICS BIOTECH & MEDICALS CORPORATION, priority 2020, dated 2023)
Each block holds one compound with its values, some of them ahead of it.

What was measured:
[1] = system: MDA-MB-231; experiment: In vitro cytotoxicity MTT assay; type: cell-based, human; details: IC50 ± SD
Description: (§1) Six different cell lines were used, including human breast cancer cell line MDA-MB-231 (6×10^3), MDA-MB-453 (2.4×10^4), SK-BR-3 (6×10^3), human breast epithelial cell line M10 (6×10^3), human gastric carcinoma NCI-N87 (2.4×10^4), and human colorectal adenocarcinoma SW48 (2.4×10^4), and seeded in a 96 well plate. Cell lines were obtained from Bioresource Collection and Research Center, BCRC, Taiwan. […] After 72 h, MTT assay (Cayman™) was used to determine the cellular viability.

[2] = system: M10; experiment: In vitro cytotoxicity MTT assay; type: cell-based, human; details: IC50 ± SD
Description: as §1

[3] = system: MDA-MB-453; experiment: In vitro cytotoxicity MTT assay; type: cell-based, human; details: IC50 ± SD
Description: as §1

[4] = system: SW48; experiment: In vitro cytotoxicity MTT assay; type: cell-based, human; details: IC50 ± SD
Description: as §1

[5] = Saturation solubility; type: physicochemical; details: ddH2O, 25° C., 90 minutes; mean ± SD; BDL: Below detection limit
Description: Samples of 5 mg of compounds were added to 5 ml volumetric flasks containing ddH2O and shaken at 100 rpm in an incubator at 25° C. for 90 minutes. The resulting suspension was filtered through a 0.22 μm filter. The concentrations of compounds were determined spectrophotometrically at 256 nm. The saturation solubility of each sample was determined in triplicates and the mean value and standard deviation were reported.

[6] = system: NCI-N87; experiment: In vitro cytotoxicity MTT assay; type: cell-based; details: Homo sapiens, 72 h, IC50 ± SD
Description: as §1

[7] = system: SK-BR-3; experiment: In vitro cytotoxicity MTT assay; type: cell-based; details: Homo sapiens, 72 h, IC50 ± SD
Description: as §1

[8] = biological target: T1, HDAC3 (Homo sapiens (Human), UniProt O15379); experiment: HDAC3 enzymatic kinetic assay; type: biochemical; details: 2 μM; 20 min, 40 min and 60 min
Description: (§2) HDAC3 enzymatic kinetic assay was performed according to standard Protocols (Fluorgenic HDAC3 assay kit, BPS Bioscience™). […] After incubation, assay developer was added to the samples and the absorbance was read at fluorogenic wavelength. The relative inhibition to HDAC3 activity in each sample was determined.

[9] = system: SW48 cells; experiment: Cell cycle arrest by PI flow cytometry; type: cell-based, human; details: for Percentage of Cell Cycle Distribution G0/G1 / Percentage of Cell Cycle Distribution G2/M / Percentage of Cell Cycle Distribution S: 72 h
Description: (§3) A PI/RNase staining assay (BD Bioscience™) was performed to reveal the presence of cell cycle arrest and apoptotic cells after treatment with GNTbm compounds, Chidamide and Entinostat. […] After treatment cells were harvested, fixed with 80% ethanol for 24 h, washed with 1×PBS and stained with PI/RNase for 15 min at room temperature. The cells were then analyzed using Flow Cytometer within 1 h.

[10] = system: SW48 cells; experiment: Cell apoptosis (sub-G1) by PI flow cytometry; type: cell-based, human; details: 72 h
Description: as §3

[11] = biological target: HDAC1 (Homo sapiens (Human), UniProt Q13547); experiment: HDACs 1, 2, and 3 enzymatic inhibition (fluorogenic kit, 1 h); type: biochemical; details: 37° C.
Description: as §2, with “HDACs” for “HDAC3 enzymatic kinetic”, “HDACs 1, 2, and 3” for “HDAC3”, “1 h,” for “incubation,”, “HDACs 1, 2, and 3 activities” for “HDAC3 activity”

[12] = biological target: HDAC2 (Homo sapiens (Human), UniProt Q92769); experiment: as above; type: biochemical; details: 37° C.
Description: as §2, with “HDACs” for “HDAC3 enzymatic kinetic”, “HDACs 1, 2, and 3” for “HDAC3”, “1 h,” for “incubation,”, “HDACs 1, 2, and 3 activities” for “HDAC3 activity”

[13] = biological target: T1, HDAC3; experiment: as above; type: biochemical; details: 37° C.
Description: as §2, with “HDACs” for “HDAC3 enzymatic kinetic”, “HDACs 1, 2, and 3” for “HDAC3”, “1 h,” for “incubation,”, “HDACs 1, 2, and 3 activities” for “HDAC3 activity”

T1 sequence (O15379 whole entry): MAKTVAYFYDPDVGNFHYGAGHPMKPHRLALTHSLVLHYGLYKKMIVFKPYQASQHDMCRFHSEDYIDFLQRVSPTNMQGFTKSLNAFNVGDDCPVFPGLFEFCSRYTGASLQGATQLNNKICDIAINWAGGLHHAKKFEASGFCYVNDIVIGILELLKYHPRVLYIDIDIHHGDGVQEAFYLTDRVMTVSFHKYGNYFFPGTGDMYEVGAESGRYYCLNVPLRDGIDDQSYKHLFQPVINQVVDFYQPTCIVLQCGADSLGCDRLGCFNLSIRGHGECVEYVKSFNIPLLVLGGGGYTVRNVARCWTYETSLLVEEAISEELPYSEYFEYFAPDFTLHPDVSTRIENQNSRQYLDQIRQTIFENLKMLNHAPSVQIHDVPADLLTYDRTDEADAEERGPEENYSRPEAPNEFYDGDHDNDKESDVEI
T1 sequence (Q9Y618 395-489 partner): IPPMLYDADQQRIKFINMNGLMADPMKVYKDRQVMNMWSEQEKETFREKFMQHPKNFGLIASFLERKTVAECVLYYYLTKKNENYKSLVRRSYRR
HDAC2, sequence (Q92769 whole entry): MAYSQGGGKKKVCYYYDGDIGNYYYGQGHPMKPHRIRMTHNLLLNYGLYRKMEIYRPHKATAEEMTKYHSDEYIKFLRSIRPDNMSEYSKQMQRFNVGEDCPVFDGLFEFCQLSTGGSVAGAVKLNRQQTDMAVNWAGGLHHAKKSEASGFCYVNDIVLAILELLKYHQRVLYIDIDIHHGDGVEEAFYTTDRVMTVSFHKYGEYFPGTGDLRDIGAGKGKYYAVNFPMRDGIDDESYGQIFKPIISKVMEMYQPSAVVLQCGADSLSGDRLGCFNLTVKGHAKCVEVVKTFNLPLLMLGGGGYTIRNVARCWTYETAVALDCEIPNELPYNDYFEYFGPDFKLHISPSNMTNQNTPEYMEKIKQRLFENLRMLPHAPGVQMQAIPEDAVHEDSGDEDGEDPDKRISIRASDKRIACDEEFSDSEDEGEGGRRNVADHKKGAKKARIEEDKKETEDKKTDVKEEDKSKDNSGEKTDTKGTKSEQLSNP
HDAC1, sequence (Q13547 whole entry): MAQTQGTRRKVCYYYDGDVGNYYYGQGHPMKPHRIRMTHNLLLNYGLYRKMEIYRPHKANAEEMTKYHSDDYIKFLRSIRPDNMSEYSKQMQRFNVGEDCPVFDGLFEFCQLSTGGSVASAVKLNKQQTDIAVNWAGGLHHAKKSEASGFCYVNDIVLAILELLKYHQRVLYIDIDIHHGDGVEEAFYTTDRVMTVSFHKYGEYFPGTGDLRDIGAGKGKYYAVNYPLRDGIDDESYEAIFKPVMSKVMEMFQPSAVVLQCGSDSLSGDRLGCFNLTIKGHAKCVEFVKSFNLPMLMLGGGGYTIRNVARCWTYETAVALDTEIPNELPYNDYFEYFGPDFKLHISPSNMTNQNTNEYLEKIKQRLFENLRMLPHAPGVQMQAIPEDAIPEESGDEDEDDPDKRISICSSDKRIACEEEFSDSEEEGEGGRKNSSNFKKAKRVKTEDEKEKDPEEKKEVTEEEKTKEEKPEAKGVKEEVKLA

Saturation Solubility [5]: BDL
SMILES: Nc1cc(F)ccc1NC(=O)c1ccc(CNC(=O)/C=C/c2cccnc2)cc1 [Chidamide, reference compound]
IC50 ([1]; 72 h): 17.4 ± 1.98 µM
IC50 ([1]; Homo sapiens, MDA-MB-231, 72 h): 25.6 ± 3.05 µM
IC50 ([2]; 72 h): 4.94 ± 0.87 µM
IC50 ([2]; Homo sapiens, M10, 72 h): 2.72 ± 2.6 µM
IC50 ([3]; 72 h): 1.36 ± 0.12 µM
IC50 ([3]; Homo sapiens, MDA-MB-453, 72 h): 1.77 ± 0.02 µM
IC50 ([4]; 72 h): 5.43 ± 1.06 µM
IC50 [6]: 3.09 ± 0.2 µM
IC50 [7]: 3.24 ± 0.98 µM
Inhibition of HDAC 3 enzyme activities (kinetics) [8]: stronger inhibition of HDAC 3 enzyme activities than Entinostat
Percentage of Cell Cycle Distribution G0/G1 ([9]; SW48, 0.3125 μM): 65.7%
Percentage of Cell Cycle Distribution G2/M ([9]; SW48, 0.3125 μM): 16.7%
Percentage of Cell Cycle Distribution S ([9]; SW48, 0.3125 μM): 17.6%
Percentage of Cell Cycle Distribution G0/G1 ([9]; SW48, 0.625 μM): 68.1%
Percentage of Cell Cycle Distribution G2/M ([9]; SW48, 0.625 μM): 17.5%
Percentage of Cell Cycle Distribution S ([9]; SW48, 0.625 μM): 14.4%
Percentage of Cell Cycle Distribution G0/G1 ([9]; SW48, 1.25 μM): 70.6%
Percentage of Cell Cycle Distribution G2/M ([9]; SW48, 1.25 μM): 15.3%
Percentage of Cell Cycle Distribution S ([9]; SW48, 1.25 μM): 14.1%
Percentage of Cell Cycle Distribution G0/G1 ([9]; SW48, 5 μM): 79.9%
Percentage of Cell Cycle Distribution G2/M ([9]; SW48, 5 μM): 11.6%
Percentage of Cell Cycle Distribution S ([9]; SW48, 5 μM): 8.5%
Cell cycle arrest ([9]; SW48, doses of Table 12): induced cell cycle arrest in the G0/G1 phase
Percentages of Cell Apoptosis ([10]; SW48, 0.3125 μM): 9.0%
Percentages of Cell Apoptosis ([10]; SW48, 0.625 μM): 10.2%
Percentages of Cell Apoptosis ([10]; SW48, 1.25 μM): 15.1%
Percentages of Cell Apoptosis ([10]; SW48, 5 μM): 35.4%

IC50 [11]: 6.77 ± 0.76 µM
IC50 [12]: 2.68 ± 0.2 µM
IC50 [13]: 2.75 ± 0.13 µM
SMILES: Cc1ccc(/C=C/CC(=O)Nc2ccc(C(=O)Nc3ccc(F)cc3N)cn2)cn1 [GNTbm-01, 6-((E)-4-(6-methylpyridin-3-yl)but-3-enamido)-N-(2-amino-4-fluorophenyl)pyridine-3-carboxamide]
IC50 ([1]; Homo sapiens, MDA-MB-231, 72 h): 49.8 ± 4.9 µM
IC50 ([2]; Homo sapiens, M10, 72 h): 24.8 ± 1.15 µM
IC50 ([3]; Homo sapiens, MDA-MB-453, 72 h): 20.9 ± 4.44 µM
IC50 ([4]; Homo sapiens, SW48, 72 h): > 50 µM
IC50 [7]: 28.5 ± 1.85 µM
